# Test system: CD22-fc
# Test: Analysis of CD22 ligand on surfaces of NK-92 cells (CD22-fc binding, flow cytometry and confocal)
# Assay type: cell-based
# Details: NK-92 cells incubated with the sialic acid derivative; FIGS. 7A and 7B
# Experimental: Culturing ATCC (American Type Culture Collection)-derived NK-92 (ATCC® CRL2407™) cells (also known as NK-92 cell lines) on a fourth alpha-MEM growth medium (comprising 12.5% (v/v) newborn bovine serum, 12.5% (v/v) horse serum, 100 U/ml recombinant IL-2) in an incubator with 5% (v/v) CO2 atmosphere at 37° C., then replacing the fourth alpha-MEM growth medium with a fifth alpha-MEM growth medium (comprising 2 mMPB-sia), continuing to culture for 48 hours, and washing for three times to obtain MPB-sia modified NK-92 cells, which is referred to as MsNK-92 cells.
# Washing MPB-sia or BPC-sia modified NK-92 cells with PBS buffer for three times, adding 100 μL, PBS, adding 1 μg CD22-fc to obtain a first mixture, then culturing the first mixture on ice for 30 minutes, washing three times with PBS buffer, then adding anti-CD22-PE to obtain a second mixture, culturing the second mixture on ice for 30 minutes, washing three times, then collecting cells, quantifying the extent of CD22 binding by flow cytometry analysis, and imaging by confocal microscopy.
# Increasing the concentration of MPB-sia enhanced the levels of CD22 ligand expression on cell surfaces reaching a maximum at 4 mM of MPB-sia at 24 hours (FIG. 8A). […] Next, the persistence of CD22 ligands on engineered NK-92 cells was analyzed. […]
smiles,measurement,value
"CC(=O)N[C@H]1[C@H]([C@H](O)[C@H](O)CO)OC(O)(C(=O)O)C[C@@H]1O (stereo partly shown) [sialic acid (sia), sialic acid (N-acetylneuraminic acid)]",CD22 binding to NK-92 cells (flow cytometry),little binding with CD22 over the background
